Data: article PMC5361215 (Scientific Reports, 2017)
The star is where a group is joined. X1 = CC(C)CCC[C@@H](C)[C@H]1CC[C@H]2[C@@H]3CC=C4C[C@@H](OC(=O)CCOCCOCCOCCOCCOCCOCCOCCOCCOCCOCCOCCOCCOCCOCCOCCOCCOCCOCCOCCOCCOCCOCCOCCOCCNC(=O)C*)CC[C@]4(C)[C@H]3CC[C@]12C; X2 = CC(C)CCC[C@@H](C)[C@H]1CC[C@H]2[C@@H]3CC=C4C[C@@H](OC(=O)CCOCCOCCOCCOCCNC(=O)C*)CC[C@]4(C)[C@H]3CC[C@]12C; X3 = CC(C)CCC[C@@H](C)[C@H]1CC[C@H]2[C@@H]3CC=C4C[C@@H](OC(=O)C*)CC[C@]4(C)[C@H]3CC[C@]12C

Key:
HPIV3 [1] = format: cell-based
[2] = biological target: uncleaved HPIV3 F (K108G) (Human parainfluenza 3 virus, UniProt P06828, K108G); format: cell-based
[3] = format: physicochemical; conditions: pH 7.4
HPIV3 [4] = conditions: 24 h
RBCs = format: binding, human; conditions: pH 7.4; read-out: Apparent Kd towards RBCs
Vero cells = conditions: for Cytotoxicity in monolayer culture CC50: 24 h
[5] = format: binding; conditions: read-out: Kd, dissociation constant for POPC monolayer
NiV G/F mediated fusion = format: cell-based
[6] = hamster, in vivo, ip, 2 mg/kg
in vivo = conditions: female, Syrian golden, hamster, ip, 2 mg/kg
HPIV3 [7] = format: in vivo, cotton rats; conditions: n = 4
NiV = system: NiV; set-up: species or system Syrian golden hamsters (Mesocricetus auratus); conditions: hamster, in vivo, ip, 2 mg/kg

uncleaved HPIV3 F (K108G), sequence (P06828 19-539 K108G): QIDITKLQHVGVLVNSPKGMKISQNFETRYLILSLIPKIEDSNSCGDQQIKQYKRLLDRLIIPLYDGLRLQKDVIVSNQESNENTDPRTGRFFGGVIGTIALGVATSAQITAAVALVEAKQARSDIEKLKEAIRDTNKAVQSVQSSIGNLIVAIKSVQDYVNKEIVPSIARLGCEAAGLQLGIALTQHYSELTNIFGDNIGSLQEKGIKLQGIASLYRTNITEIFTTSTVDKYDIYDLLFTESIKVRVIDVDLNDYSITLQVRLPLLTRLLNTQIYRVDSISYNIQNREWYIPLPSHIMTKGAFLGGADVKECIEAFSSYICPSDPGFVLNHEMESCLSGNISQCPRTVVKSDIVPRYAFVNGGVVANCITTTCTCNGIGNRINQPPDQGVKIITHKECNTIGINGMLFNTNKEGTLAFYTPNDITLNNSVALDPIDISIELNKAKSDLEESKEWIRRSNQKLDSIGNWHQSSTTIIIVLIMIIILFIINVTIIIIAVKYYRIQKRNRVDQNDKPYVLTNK

| Molecule | Inhibition of HPIV3 infection in HAE at 1 μM (HPIV3 [1]) | RBCs irreversibly bound (peptide bridging) [2] | Blue-shift of ANS emission on titration with peptide [3] | IC50 (HPIV3 [4]) | IC90 (HPIV3 [4]) | Kd (RBCs) | Cytotoxicity in monolayer culture CC50 (Vero cells) | Kd [5] | Inhibition of HPIV3 infection in HAE at 10 μM (HPIV3 [1]) | also measured |
| --- | --- | --- | --- | --- | --- | --- | --- | --- | --- | --- |
| Ac-VALDPIDISIVLNKAKSDLEESKEWIRRSNGKLDSIGSGSGC(X2)-NH2 [VG-PEG4-Chol] | only partial inhibition | more than 50% | 63 nm | 0.03 ± 0.04 nM | 0.7 ± 0.007 nM | 440 nM | 4,500 nM | 67.9 ± 14.2 nM |  | Decrease of HPIV3 viral titer in HAE at day 2 after infection (HPIV3 [1]): approximately two logs; Decrease of HPIV3 viral titer in HAE at day 5 (HPIV3 [1]): approximately one log |
| Ac-C(X3)GSGSGVALDPIDISIVLNKAKSDLEESKEWIRRSNGKLDSI-NH2 [Chol-VG] |  |  |  | 0.06 ± 0.035 nM | 1.7 ± 0.42 nM |  | 9,000 nM |  |  | RBCs free (released) [2]: 80%; RBCs reversibly bound (HN-receptor engagement only) [2]: 20%; IC50 against NiV fusion (NiV G/F mediated fusion): too little effect to determine an IC50 |
| Ac-C(X2)GSGSGVALDPIDISIVLNKAKSDLEESKEWIRRSNGKLDSI-NH2 [Chol-PEG4-VG] | only partial inhibition |  |  |  | 0.1 ± 0.0001 nM |  | >10,000 nM |  | no virus was produced at any time after infection |  |
| Ac-VALDPIDISIVLNKAKSDLEESKEWIRRSNGKLDSIGSGSGC(X3)-NH2 [VG-Chol] |  |  | 67 nm | 0.015 nM | 0.7 ± 0.26 nM | 540 nM | 10,000 nM | 62.3 ± 20.3 nM |  |  |
| CC[C@H](C)[C@H](NC(=O)[C@H](C)NC(=O)[C@H](CC(N)=O)NC(=O)CNC(=O)[C@H](CC(C)C)NC(=O)[C@H](CC(N)=O)NC(=O)[C@@H](NC(=O)CNC(=O)[C@@H](NC(=O)[C@H](CC(=O)O)NC(=O)[C@H](CC(C)C)NC(=O)[C@H](CCCNC(=N)N)NC(=O)[C@H](CCC(=O)O)NC(=O)[C@H](CC(C)C)NC(=O)[C@H](CO)NC(=O)[C@@H](NC(=O)[C@@H]1CCCN1C(=O)[C@@H]1CCCN1C(C)=O)[C@@H](C)CC)C(C)C)[C@@H](C)O)C(=O)N[C@@H](C)C(=O)N[C@@H](CCCCN)C(=O)N[C@@H](CC(C)C)C(=O)N[C@@H](CCC(=O)O)C(=O)N[C@@H](CC(=O)O)C(=O)N[C@@H](C)C(=O)N[C@@H](CCCCN)C(=O)N[C@@H](CCC(=O)O)C(=O)N[C@@H](CC(C)C)C(=O)N[C@@H](CC(C)C)C(=O)N[C@@H](CCC(=O)O)C(=O)N[C@@H](CO)C(=O)N[C@@H](CO)C(=O)N[C@@H](CC(=O)O)C(=O)N[C@@H](CCC(N)=O)C(=O)N[C@H](C(=O)N[C@@H](CC(C)C)C(=O)N[C@@H](CCCNC(=N)N)C(=O)NCC(=O)N[C@@H](CO)C(=O)NCC(=O)N[C@@H](CO)C(=O)NCC(=O)N[C@@H](CSCC(=O)NCCOCCOCCOCCOCCOCCOCCOCCOCCOCCOCCOCCOCCOCCOCCOCCOCCOCCOCCOCCOCCOCCOCCOCCOCCC(=O)O[C@H]1CC[C@@]2(C)C(=CC[C@H]3[C@@H]4CC[C@H]([C@H](C)CCCC(C)C)[C@@]4(C)CC[C@@H]32)C1)C(N)=O)[C@@H](C)CC [HRCMV PEG 24 Chol, reference compound] |  |  |  | > 2000 nM | > 2000 nM |  | 2,000 nM |  |  |  |
| Ac-VALDPIDISIVLNKAKSDLEESKEWIRRSNGKLDSIGSGSGC(X1)-NH2 [VG-PEG24-Chol] | complete inhibition of infection | looks similar to VG-Chol | 58 nm | 0.007 ± 0.007 nM | 0.1 ± 0.0003 nM | 330 nM | 1,300 nM | 77.6 ± 21.7 nM | no virus was produced at any time after infection | Peptide in brain (immuno-histofluorescence) [6]: present in brain parenchyma; Peptide in urine [6]: No peptide was detected in the urine; Cmax (in vivo): 120 nM; Viral load in cotton rat lungs (HPIV3 [7]): significantly decreased the viral load; Survival of hamsters given lethal NiV (NiV): significantly improved the survival; Protease degradation, temperature not given (trypsin): increased degradation significantly; Concentration at which toxicity on cells appears (Vero cells): 1000 nM |
